# Test results published in patent US11225503B2, “Crystobactamides” (HELMHOLTZ-ZENTRUM FÜR INFEKTIONSFORSCHUNG GMBH, priority 2013, dated 2022).
# Columns and labels:
# Format in all cases: cell-based
# [1] = test system: Acinetobacter baumannii DSM-30008; experiment: Susceptibility testing, MIC microdilution; conditions: Acinetobacter baumannii DSM-30008
# Method: (§1) Bacterial wildtype strains used in susceptibility assays were either part of our strain collection or purchased from the German Collection of Microorganisms and Cell Cultures (DSMZ) or from the American Type Culture Collection (ATCC). E. coli strain WT^[6] and E. coli mutants were kindly provided by Prof. Dr. P. Heisig, Pharmaceutical Biology and Microbiology, University of Hamburg.
# (§2) MIC values were determined in microdilution assays. Overnight cultures were diluted in the appropriate growth medium to achieve an inoculum of 10^4-10^6 cfu/mL. Yeasts were grown in Myc medium (1% phytone peptone, 1% glucose, 50 mM HEPES, pH 7.0), S. pneumonia and E. faecalis in tryptic soy broth (TSB: 1.7% peptone casein, 0.3% peptone soymeal, 0.25% glucose, 0.5% NaCl, 0.25% K2HPO4; pH 7.3); M. smegmatis in Middlebrook 7H9 medium supplemented with 10% Middlebrook ADC enrichment and 2 ml/l glycerol). All other listed bacteria were grown in Müller-Hinton broth (0.2% beef infusion solids, 1.75% casein hydrolysate, 0.15% starch, pH 7.4). Cystobactamides and reference drugs were added directly to the cultures in sterile 96-well plates as duplicates and serial dilutions were prepared. Microorganisms were grown on a microplate shaker (750 rpm, 30-37° C., 18-48 h), except S. pneumonia, which was grown at non-shaking conditions (37° C., 5% CO2, 18 h). Growth inhibition was assessed by visual inspection and the MIC was defined as the lowest concentration of compound that inhibited visible growth.
# [2] = test system: Bacillus subtilis DSM-10; experiment: Susceptibility testing, MIC microdilution; conditions: Bacillus subtilis DSM-10
# Method: as §1, §2
# [3] = test system: Burkholderia cenocepacia DSM-16553; experiment: Susceptibility testing, MIC microdilution; conditions: Burkholderia cenocepacia DSM-16553
# Method: as §1, §2
# [4] = test system: Candida albicans DSM-1665; experiment: Susceptibility testing, MIC microdilution; conditions: Candida albicans DSM-1665
# Method: as §1, §2
# [5] = test system: Chromobacterium violaceum DSM-30191; experiment: Susceptibility testing, MIC microdilution; conditions: Chromobacterium violaceum DSM-30191
# Method: as §1, §2
# [6] = test system: Enterobacter aerogenes DSM-30053; experiment: Susceptibility testing, MIC microdilution; conditions: Enterobacter aerogenes DSM-30053
# Method: as §1, §2
# [7] = test system: Enterococcus faecalis ATCC29212; experiment: Susceptibility testing, MIC microdilution
# Method: as §1, §2
# [8] = test system: Escherichia coli ATCC25922; experiment: Susceptibility testing, MIC microdilution
# Method: as §1, §2
# [9] = test system: Escherichia coli ATCC35218; experiment: Susceptibility testing, MIC microdilution
# Method: as §1, §2
# [10] = test system: Escherichia coli DSM-1116; experiment: Susceptibility testing, MIC microdilution; conditions: Escherichia coli DSM-1116
# Method: as §1, §2
# [11] = test system: Escherichia coli DSM-12242 (NAL^R); experiment: Susceptibility testing, MIC microdilution; conditions: Escherichia coli DSM-12242 (NAL^R)
# Method: as §1, §2
# [12] = test system: Escherichia coli DSM-26863 (tolC3); experiment: Susceptibility testing, MIC microdilution; conditions: Escherichia coli DSM-26863 (tolC3)
# Method: as §1, §2
# [13] = test system: Klebsiella pneumoniae DSM-30104; experiment: Susceptibility testing, MIC microdilution; conditions: Klebsiella pneumoniae DSM-30104
# Method: as §1, §2
# [14] = test system: Micrococcus luteus DSM-1790; experiment: Susceptibility testing, MIC microdilution; conditions: Micrococcus luteus DSM-1790
# Method: as §1, §2
# [15] = test system: Mycobacterium smegmatis mc^2155 ATCC700084; experiment: Susceptibility testing, MIC microdilution; conditions: Mycobacterium smegmatis mc^2155 ATCC700084
# Method: as §1, §2
# [16] = test system: Pichia anomala DSM-6766; experiment: Susceptibility testing, MIC microdilution; conditions: Pichia anomala DSM-6766
# Method: as §1, §2
# [17] = test system: Pseudomonas aeruginosa ATCC27853; experiment: Susceptibility testing, MIC microdilution
# Method: as §1, §2
# [18] = test system: Staphylococcus aureus ATCC29213; experiment: Susceptibility testing, MIC microdilution
# Method: as §1, §2
# [19] = test system: Streptococcus pneumoniae DSM-20566; experiment: Susceptibility testing, MIC microdilution; conditions: Streptococcus pneumoniae DSM-20566
# Method: as §1, §2
# [20] = test system: E. coli WT; experiment: Susceptibility of mutant E. coli strains, MIC; conditions: Escherichia coli WT
# Excerpt: (§3) Cystobactamides were screened using a panel of E. coli strains with typical mutations in gyrA and parC genes (Table 11).
# High-level quinolone resistance often results from a combination of several target site mutations and altered efflux mechanisms. […] This, in turn, leads to overproduction of MarA and AcrAB and overexpression of the AcrAB efflux pump is associated with the MAR (multiple antibiotic resistance) phenotype.^[5]
# as §1, §2
# [21] = test system: E. coli strain MI (single-step gyrA mutation); experiment: Susceptibility of mutant E. coli strains, MIC; conditions: Escherichia coli MI [gyrA(S83L)]
# Excerpt: as §3, §1, §2
# [22] = test system: E. coli strain WT-3.2 (single-step gyrA mutation); experiment: Susceptibility of mutant E. coli strains, MIC; conditions: Escherichia coli WT-3.2 [gyrA(D87G)]
# Excerpt: as §3, §1, §2
# [23] = test system: E. coli strain WT-4 M2.1 (parC mutation); experiment: Susceptibility of mutant E. coli strains, MIC; conditions: Escherichia coli WT-4 M2.1 [parC(S801)]
# Excerpt: as §3, §1, §2
# [24] = test system: E. coli strain WT-3 (combination of both gyrA mutations); conditions: Escherichia coli WT-3 [gyrA(S83L, D87G)]
# Excerpt: as §3, §1
# as §2, with “Cystobactamides and reference drugs were added directly to the cultures in sterile 96-well plates as duplicates and serial dilutions were prepared. Microorganisms were grown on a microplate shaker (750 rpm, 30-37° C., 18-48 h), except S. pneumonia, which was grown at non-shaking conditions (37° C., 5% CO2, 18 h).” left out
# [25] = test system: E. coli strain WT III (marR Δ74 bp); experiment: Susceptibility of mutant E. coli strains, MIC
# Method: as §1, §2
# [26] = test system: Human HCT-116 colon carcinoma cells
# Method: (§4) Human HCT-116 colon carcinoma cells (CCL-247) were obtained from the American Type Culture Collection (ATCC) and Chinese hamster ovary CHO-K1 cells (ACC-110) were obtained from the German Collection of Microorganisms and Cell Cultures (DSMZ). Both cell lines were cultured under the conditions recommended by the respective depositor. Primary HUVEC (human umbilical vein endothelial cells; single donor) were purchased from PromoCell (Heidelberg, Germany) and cultured in Endothelial Cell Growth Medium (PromoCell) containing the following supplements: 2% FCS, 0.4% ECGS, 0.1 ng/ml EGF, 1 ng/ml bFGF, 90 μg/ml heparin, 1 μg/ml hydrocortisone.
# (§5) Cells were seeded at 6×10^3 cells per well of 96-well plates (Corning CellBind®) in complete medium (180 μl) and directly treated with cystobactamides dissolved in methanol in a serial dilution. Compound were tested in duplicate for 5 d, as well as the internal solvent control. After 5 d incubation, 5 mg/ml MTT in PBS (20 μL) was added per well and it was further incubated for 2 h at 37° C.[7] The medium was then discarded and cells were washed with PBS (100 μl) before adding 2-propanol/10N HCl (250:1, v/v; 100 μl) in order to dissolve formazan granules. The absorbance at 570 nm was measured using a microplate reader (EL808, Bio-Tek Instruments Inc.).
# [27] = test system: Primary HUVEC (human umbilical vein endothelial cells)
# Method: as §4, §5
# [28] = test system: several microorganisms and cell lines; experiment: Biological evaluation, summary statements over the MIC and cytotoxicity tests
# Method: as §5, §2
# [29] = test system: Escherichia coli MI-4 [gyrA(S83L), parC(S801)]; experiment: Susceptibility of mutant E. coli strains, MIC
# Excerpt: as §3
structure (smiles),measurement,setting,value
COC(C(=O)Nc1ccc(C(=O)Nc2ccc(C(=O)Nc3ccc(C(=O)O)cc3OC(C)C)c(O)c2OC(C)C)cc1)C(NC(=O)c1ccc(NC(=O)c2ccc([N+](=O)[O-])cc2)cc1)C(=O)O (stereo not shown) [cystobactamide B],MIC,[1],3.7 mg/L
same,MIC,[2],0.46 mg/L
same,MIC,[3],>59 mg/L
same,MIC,[4],>59 mg/L
same,MIC,[5],14.7 mg/L
same,MIC,[6],>59 mg/L
same,MIC,[7],0.23 mg/L
same,MIC,[8],0.9 mg/L
same,MIC,[9],1.8 mg/L
same,MIC,[10],1.8 mg/L
same,MIC,[11],3.7 mg/L
same,MIC,[12],1.8 mg/L
same,MIC,[13],>59 mg/L
same,MIC,[14],0.23 mg/L
same,MIC,[15],>59 mg/L
same,MIC,[16],>59 mg/L
same,MIC,[17],14.7 mg/L
same,MIC,[18],0.12 mg/L
same,MIC,[19],0.46 mg/L
same,MIC,[20],1.8 mg/L
same,MIC,[21],3.7 mg/L
same,MIC,[22],3.7 mg/L
same,MIC,[23],1.8 mg/L
same,MIC,[24],7.4 mg/L
same,"MIC, in words",[25]; E. coli WT III,in the μg/ml range
same,MIC,[25]; Escherichia coli WTIII [marRΔ74bp],3.7 mg/L
same,GI50,[26],> 50 µM
same,GI50,[27],> 50 µM
same,inhibition of pathogenic Gram-negative strains A. baumannii and P. aeruginosa (MIC range),[28]; A. baumannii and P. aeruginosa,low μg/ml range
same,average potency on Gram-positive bacteria compared with ciprofloxacin,"[28]; E. faecalis, S. aureus, S. pneumonia, average MIC",exceeded that of ciprofloxacin
same,MIC,[29],1.8 mg/L
